Laboratory results reported in patent publication US6495591B1, “Fungal efflux pump inhibitors” (Essential Therapeutics, Inc., priority 1997, dated 2002).
≈ marks a conversion by molar mass, not a printed value.

Key:
Test in all cases: microbe, parasite or virus in culture
Assay type in all cases: cell-based
[1] = test system: S. cerevisiae YEM-3 (no efflux pump introduced); conditions: Saccharomyces cerevisiae, read-out: MIC Flu alone
[2] = test system: S. cerevisiae YEM-37 (CDR2 introduced)
[3] = test system: S. cerevisiae YEM-39 (CgCDR introduced)
[4] = test system: S. cerevisiae YEM-40 (CgCDR, MF, introduced)
[5] = test system: S. cerevisiae YEM-38 (FLU1 introduced)
[6] = test system: C. albicans YEM-11 (BEN overexpressor)
[7] = test system: C. albicans YEM-13 (BEN overexpressor)
[8] = test system: C. albicans YEM-15 (CDR1 and CDR2 overexpressor)
[9] = test system: C. albicans YEM-5 (CDR1 and CDR2 overexpressor)
[10] = test system: C. albicans YEM-15 (CDR1 & CDR2 overexpressor)
[11] = test system: C. glabrata YEM-19 (CgCDR overexpressor)
[12] = test system: S. cerevisiae YEM-1 (CDR1 introduced); conditions: YEM-1, CDR1; milbemycin β1 […]
[13] = test system: S. cerevisiae YEM-2 (BEN introduced); conditions: YEM-2, BEN; milbemycin β1 […]
[14] = Saccharomyces cerevisiae, read-out: MIC Flu alone
[15] = Candida albicans, read-out: MIC Flu alone

## OC(Cn1cncn1)(Cn1cncn1)c1ccc(F)cc1F [Fluconazole, fluconazole, reference compound]
[1]
  MIC: 0.25 µg/mL (≈ 0.816 µM)
[2]; [14]
  MIC: 2 µg/mL (≈ 6.53 µM)
[3]; [14]
  MIC: 32 µg/mL (≈ 104 µM)
[4]; [14]
  MIC: 16 µg/mL (≈ 52.2 µM)
[5]; [14]
  MIC: 4 µg/mL (≈ 13.1 µM)
[6]; [15]
  MIC: 32 µg/mL (≈ 104 µM)
[7]; [15]
  MIC: 32 µg/mL (≈ 104 µM)
[8]; [15]
  MIC: 128 µg/mL (≈ 418 µM)
[9]; [15]
  MIC: > 128 µg/mL
[10]; [15]
  MIC: 128 µg/mL (≈ 418 µM)
[11]; Nakaseomyces glabratus, read-out: MIC Flu alone
  MIC: > 128 µg/mL

## Milbemycin oxime [Compound 2]
[10]
  MIC of fluconazole, Flu + McOxm (2.5 μg/ml): 0.25 µg/mL
[11]
  MIC of fluconazole, Flu + McOxm (2.5 μg/ml): 128 µg/mL

## CO[C@H]1C[C@@]2(O)/C(CO)=C/C=C/[C@H](C)C/C(C)=C/C[C@@H]3C[C@@H](C[C@]4(CC[C@H](C)[C@@H](C)O4)O3)OC(=O)[C@@H]2C=C1C [Compound 6, Milbemycin β1]
[12]
  MIC of fluconazole, Flu + Mb ([…]): 0.25 µg/mL
[2]; YEM-37, CDR2, milbemycin β1 […]
  MIC of fluconazole, Flu + Mb ([…]): 0.25 µg/mL
[3]; YEM-39, CgCDR, milbemycin β1 […]
  MIC of fluconazole, Flu + Mb ([…]): 1 µg/mL
[13]
  MIC of fluconazole, Flu + Mb ([…]): 128 µg/mL
[4]; YEM-40, CgCDR (MF), milbemycin β1 […]
  MIC of fluconazole, Flu + Mb ([…]): 16 µg/mL
[5]; YEM-38, FLU1, milbemycin β1 […]
  MIC of fluconazole, Flu + Mb ([…]): 4 µg/mL
[6]; YEM-11, milbemycin β1 2.5 μg/ml
  MIC of fluconazole, Flu + Mb (2.5 μg/ml): 32 µg/mL
[7]; YEM-13, milbemycin β1 2.5 μg/ml
  MIC of fluconazole, Flu + Mb (2.5 μg/ml): 32 µg/mL
[8]; YEM-15, milbemycin β1 2.5 μg/ml
  MIC of fluconazole, Flu + Mb (2.5 μg/ml): 1 µg/mL
[9]; YEM-5, milbemycin β1 2.5 μg/ml
  MIC of fluconazole, Flu + Mb (2.5 μg/ml): 8 µg/mL
